Measurements as given in patent US20060276464A1, “Diarylsulfone sulfonamides and use thereof” (Wyeth, priority 2005, published 2006).
Like-named read-outs stand apart in the source and are kept apart here.

Biological target: T1, SFRP-1 (Homo sapiens, UniProt Q8N474)
T1 sequence (Q8N474 32-314): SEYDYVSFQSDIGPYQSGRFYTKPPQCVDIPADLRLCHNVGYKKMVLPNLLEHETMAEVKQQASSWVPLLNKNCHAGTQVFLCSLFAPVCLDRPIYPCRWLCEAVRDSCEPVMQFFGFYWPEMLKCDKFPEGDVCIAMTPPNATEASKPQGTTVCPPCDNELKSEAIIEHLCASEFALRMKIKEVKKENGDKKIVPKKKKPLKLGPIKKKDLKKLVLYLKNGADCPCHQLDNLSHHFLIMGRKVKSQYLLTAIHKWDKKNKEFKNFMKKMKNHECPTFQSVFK
Experiment: Cell-based assay for in vitro measurement of SFRP-1/SARP2 antagonist activity (U2OS cells co-transfected with 16x TCF-tk-Luciferase reporter, Wnt and hSFRP-1);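 note: U2OS cells co-transfected with a TCF-tk luciferase reporter, a Wnt vector, hSFRP-1 or empty vector and CMV-βgal, luciferase luminescence read in cell lysates alongside βgal activity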
Settings: U2OS; for fold induction at 10 µM: read-out: Fold Induction with SFRP-1, U2OS cells, single dose 10 μM, luciferase reporter, fold induction over SFRP-1 control

[1] = read-out: Fold Induction with SFRP-1, Conc 15 μM, with SFRP-1, fold induction over SFRP-1 control, single dose
[2] = read-out: Fold Induction without SFRP-1, Conc 15 μM, without SFRP-1, single dose
[3] = read-out: Fold Induction with SFRP-1, Conc 15 μM, single dose, luciferase reporter, fold induction over SFRP-1 control, cells with SFRP-1
[4] = read-out: Fold Induction without SFRP-1, Conc 15 μM, single dose, luciferase reporter, cells without SFRP-1 (specificity control)
[5] = read-out: Fold Induction with SFRP-1, Conc 30 μM, with SFRP-1, fold induction over SFRP-1 control, single dose
[6] = read-out: Fold Induction without SFRP-1, Conc 30 μM, without SFRP-1, single dose

Compound | fold induction at 15 µM [1] | fold induction at 15 µM [2] | further results
CCN(CC)CCNS(=O)(=O)c1cc(S(=O)(=O)c2ccccc2)ccc1C [Example 213, N-[2-(diethylamino)ethyl]-2-methyl-5-(phenylsulfonyl)benzenesulfonamide] | 1.8 | 1.3 | –
CCc1ccc(S(=O)(=O)c2ccccc2)cc1S(=O)(=O)NCCc1ccccc1OC [Example 142, 2-ethyl-N-[2-(2-methoxyphenyl)ethyl]-5-(phenylsulfonyl)benzenesulfonamide] | 3.2 | 1.3 | –
CC(C)c1ccc(S(=O)(=O)c2ccc(F)cc2)cc1S(=O)(=O)NC(CO)C(C)C (centres unmarked) [Example 734, 5-[(4-fluorophenyl)sulfonyl]-N-[1-(hydroxymethyl)-2-methylpropyl]-2-isopropylbenzenesulfonamide] | – | – | fold induction at 10 µM: 1.6
CNc1ccc(S(=O)(=O)c2ccc(C(C)C)c(S(=O)(=O)NCCn3ccnc3)c2)cc1 [Example 451, N-[2-(1H-imidazol-1-yl)ethyl]-2-isopropyl-5-{[4-(methylamino)phenyl]sulfonyl)benzenesulfonamide] | 3.7 | 1.1 | –
Cc1ccc(S(=O)(=O)c2ccccc2)cc1S(=O)(=O)N1CCN(CCN2CCOCC2)CC1 [Example 281, 4-[2-(4-{[2-methyl-5-(phenylsulfonyl)phenyl]sulfonyl}piperazin-1-yl)ethyl]morpholine] | 2.8 | 1.3 | –
Cc1ccc(S(=O)(=O)c2cc(Cl)cc(C#N)c2)cc1S(=O)(=O)NCCc1ccccn1 [Example 492, 5-[(3-chloro-5-cyanophenyl)sulfonyl]-2-methyl-N-(2-pyridin-2-ylethyl)benzenesulfonamide] | – | – | fold induction at 15 µM [3]: 1.6; fold induction at 15 µM [4]: 1.2
C#CCN(CCc1ccc(OC)c(OC)c1)S(=O)(=O)c1cc(S(=O)(=O)c2ccccc2)ccc1C [Example 274, N-[2-(3,4-dimethoxyphenyl)ethyl]-2-methyl-5-(phenylsulfonyl)-N-prop-2-ynylbenzenesulfonamide] | 2 | 1 | –
O=C(NCCNS(=O)(=O)c1cc(S(=O)(=O)c2ccccc2)ccc1C(F)(F)F)c1ccc(C(F)(F)F)cc1 [Example 781, N-[2-({[5-(Phenylsulfonyl)-2-(trifluoromethyl)phenyl]sulfonyl}amino)ethyl]-4-(trifluoromethyl)benzamide] | – | – | fold induction at 10 µM: 1.2
CCN(CC)CCNS(=O)(=O)c1cccc(S(=O)(=O)c2ccccc2)c1 [Example 193, N-[2-(diethylamino)ethyl]-3-(phenylsulfonyl)benzenesulfonamide] | – | – | fold induction at 30 µM [5]: 1.2; fold induction at 30 µM [6]: 1.3
Cc1ccc(S(=O)(=O)c2ccc(C)c(S(=O)(=O)NC3Cc4ccccc4C3)c2)cc1 [Example 252, N-2,3-dihydro-1H-inden-2-yl-2-methyl-5-[(4-methylphenyl)sulfonyl]benzenesulfonamide] | – | – | fold induction at 20 µM (read-out: Fold Induction with SFRP-1, Conc 20 μM, with SFRP-1, fold induction over SFRP-1 control, single dose): 2.6; fold induction at 20 µM (read-out: Fold Induction without SFRP-1, Conc 20 μM, without SFRP-1, single dose): 1
COc1ccc(S(=O)(=O)c2ccccc2)cc1S(=O)(=O)NCCc1cccc(F)c1 [Example 155, N-[2-(3-fluorophenyl)ethyl]-2-methoxy-5-(phenylsulfonyl)benzenesulfonamide] | 1.5 | 1.2 | –
NC(=O)CCNS(=O)(=O)c1cccc(S(=O)(=O)c2ccccc2)c1 [Example 181, N^3-{[3-(phenylsulfonyl)phenyl]sulfonyl}-beta-alaninamide] | – | – | fold induction at 30 µM [5]: 0.6; fold induction at 30 µM [6]: 1
Cc1ccc(S(=O)(=O)c2ccccc2)cc1S(=O)(=O)NCCc1c[nH]cn1 [Example 210, N-[2-(1H-imidazol-4-yl)ethyl]-2-methyl-5-(phenylsulfonyl)benzenesulfonamide] | 2.5 | 1 | –
O=S(=O)(c1ccccc1)c1ccc(Cl)c(S(=O)(=O)N2CCN(Cc3ccc4c(c3)OCO4)CC2)c1 [Example 637, 1-(1,3-benzodioxol-5-ylmethyl)-4-{[2-chloro-5-(phenylsulfonyl)phenyl]sulfonyl}piperazine] | – | – | fold induction at 15 µM [3]: 0.9; fold induction at 15 µM [4]: 1
